Measurements: US9657047B2, “Crystallization of epirubicin hydrochloride” (MEDAC GESELLSCHAFT FÜR KLINISCHE SPEZIALPRÄPARATE MBH, priority 2011, dated 2017)

Assay: test of thermal stability (storage at 40° C.)
Format: physicochemical
Details: two weeks and three weeks; for decomposition on storage (thermal stability): crystals stored at 40° C. for one week
Description: The produced crystalline epirubicin hydrochloride was subjected to a test of thermal stability. For this purpose, the produced crystals were stored at a temperature of 40° C. for a time period of one week, two weeks, and three weeks. […] Instead, the crystals remained in unchanged form.
The epirubicin hydrochloride produced was subjected to a test of thermal stability. For this purpose, the epirubicin hydrochloride was stored at a temperature of 40° C. for a time period of one week, two weeks, and three weeks. Within this time frame, a thermal decomposition of epirubicin hydrochloride amplified with increasing storage period by two percent respectively was observed.

**Q.** Which “thermal decomposition amplified with increasing storage period” value (stored at 40° C. for one week, increase per storage period) does the source give for `COc1cccc2c1C(=O)c1c(O)c3c(c(O)c1C2=O)C[C@@](O)(C(=O)CO)C[C@@H]3O[C@H]1C[C@H](N)[C@@H](O)[C@H](C)O1.Cl` [Comparison Example 1, epirubicin hydrochloride] here?
**A.** two

**Q.** With `COc1cccc2c1C(=O)c1c(O)c3c(c(O)c1C2=O)C[C@@](O)(C(=O)CO)C[C@@H]3O[C@H]1C[C@H](N)[C@@H](O)[C@H](C)O1.Cl` [Example 2, epirubicin hydrochloride] as the compound, how does the “decomposition on storage (thermal stability)” value read?
**A.** no decomposition

**Q.** Which “decomposition on storage (thermal stability)” value does the source give for `COc1cccc2c1C(=O)c1c(O)c3c(c(O)c1C2=O)C[C@@](O)(C(=O)CO)C[C@@H]3O[C@H]1C[C@H](N)[C@@H](O)[C@H](C)O1.Cl` [Example 1, epirubicin hydrochloride] here?
**A.** no decomposition
